In the NIST ThermoML archive (doi:10.1016/j.jct.2016.03.026):

Test: xn = mol fraction of the nth substance listed
Details: 313.15 K, Fluid (supercritical or subcritical phases), x1 = 0.97; for mass density: Vibrating tube method; for speed of sound: Frequency=5 MHz, Pulse-echo method

O=C=O [carbon dioxide] + CO
Details	mass density [kg/m3]	speed of sound [m/s]
17250 kPa	821	–
17275 kPa	821.23	–
17300 kPa	821.48	–
17325 kPa	821.73	–
17350 kPa	821.98	–
17375 kPa	822.18	–
17400 kPa	822.42	–
17425 kPa	822.65	–
17450 kPa	822.87	–
17475 kPa	823.11	–
17500 kPa	823.28	–
17525 kPa	823.52	–
17550 kPa	823.71	–
17575 kPa	823.99	–
17600 kPa	824.21	–
17625 kPa	824.46	–
17650 kPa	824.71	–
17675 kPa	824.95	–
17700 kPa	825.17	–
17725 kPa	825.45	–
17750 kPa	825.67	–
17775 kPa	825.94	–
17800 kPa	826.17	–
17825 kPa	826.41	–
17850 kPa	826.64	–
17875 kPa	826.87	–
17900 kPa	827.14	–
17925 kPa	827.38	–
17950 kPa	827.61	–
17975 kPa	827.85	–
18000 kPa	828.1	–
18025 kPa	828.35	–
18050 kPa	828.6	–
18075 kPa	828.84	–
18100 kPa	829.11	–
18125 kPa	829.36	–
18150 kPa	829.59	–
18175 kPa	829.87	–
18200 kPa	830.13	–
18225 kPa	830.35	–
18250 kPa	830.62	–
18275 kPa	830.86	–
18300 kPa	831.12	–
18325 kPa	831.37	–
18350 kPa	831.62	–
18375 kPa	831.85	–
18400 kPa	832.11	–
18425 kPa	832.31	–
18450 kPa	832.53	–
18475 kPa	832.8	–
18500 kPa	833.03	–
18525 kPa	833.28	–
18550 kPa	833.5	–
18575 kPa	833.75	–
18600 kPa	833.97	–
18625 kPa	834.2	–
18650 kPa	834.43	–
18675 kPa	834.69	–
18700 kPa	834.94	–
18725 kPa	835.15	–
18750 kPa	835.38	–
18775 kPa	835.62	–
18800 kPa	835.84	–
18825 kPa	836.06	–
18850 kPa	836.28	–
18875 kPa	836.55	–
18900 kPa	836.78	–
18925 kPa	837.02	–
18950 kPa	837.22	–
18975 kPa	837.47	–
19000 kPa	837.72	–
19025 kPa	837.93	–
19050 kPa	838.15	–
19075 kPa	838.38	–
19100 kPa	838.61	–
19125 kPa	838.87	–
19150 kPa	839.12	–
19175 kPa	839.32	–
19200 kPa	839.61	–
19225 kPa	839.82	–
19250 kPa	840.03	–
19275 kPa	840.27	–
19300 kPa	840.49	–
19325 kPa	840.71	–
19350 kPa	840.94	–
19375 kPa	841.18	–
19400 kPa	841.4	–
19425 kPa	841.61	–
19450 kPa	841.84	–
19475 kPa	842.08	–
19500 kPa	842.31	–
19525 kPa	842.53	–
19550 kPa	842.75	–
19575 kPa	842.96	–
19600 kPa	843.19	–
19625 kPa	843.37	–
19650 kPa	843.59	–
19675 kPa	843.84	–
19700 kPa	844.02	–
19725 kPa	844.25	–
19750 kPa	844.43	–
19775 kPa	844.64	–
19800 kPa	844.89	–
19825 kPa	845.06	–
19850 kPa	845.27	–
19875 kPa	845.47	–
19900 kPa	845.69	–
19925 kPa	845.91	–
19950 kPa	846.1	–
19975 kPa	846.29	–
20000 kPa	846.53	–
31890 kPa	–	648.6
34940 kPa	–	674.9
39990 kPa	–	714.5
44940 kPa	–	749.7
49940 kPa	–	782
54960 kPa	–	812.2
60140 kPa	–	841.3
65170 kPa	–	867.7
70010 kPa	–	891.8
75170 kPa	–	916.2
80060 kPa	–	938.2
